We go through 2 compounds from ChEMBL document CHEMBL6120978, “Anticancer activity of salinomycin quaternary phosphonium salts” (Eur J Med Chem, 2025).

Activity calls are given as the source filed them.

The test system of one series is Staphylococcus aureus. Briefly: Antimicrobial activity against Staphylococcus aureus ATCC 25923 incubated for 18 hrs by twofold microdilution method. The class given is functional. On the technique in general: Broth dilution looks for growth in wells or tubes with falling amounts of substance.
Series [1] has as its system MDA-MB-231. Briefly: Effect on mitochondrial function in human MDA-MB-231 cells assessed as fold increase in mean fluorescence intensity at IC50 incubated for 48 hrs by MitoTracker Red CMXRos staining based flow cytometry analysis relative to control. Type of series: functional. (A flow cytometer gives signals particle by particle.)
The subject of series [2] is A549. In words: Effect on mitochondrial mass in human A549 cells assessed as increase in MTGreen positive cells at IC50 incubated for 48 hrs by MitoTracker Green FM staining based flow cytometry analysis relative to control. The class given is functional.
A short description of series [3]: Selectivity index, ratio of IC50 for cytotoxicity against chinese hamster V79 cells to IC50 for cytotoxicity against human SW620 cells. Type of series: toxicity, cell-based. To be noted: V79 cells versus SW620 cells, read-out: Ratio IC50.
In series [4] the test system is A549. Briefly: Induction of cell cycle arrest in human A549 cells assessed as accumulation of cells at G0/G1 phase at IC50 incubated for 24 hrs by propidium iodide staining based flow cytometry analysis (reference value: 54.3 %). Type of series: functional.
In series [5] the test system is A549. Briefly: Effect on mitochondrial function in human A549 cells assessed as increase in MTRed CMXRos positive cells at IC50 incubated for 48 hrs by MitoTracker Red CMXRos staining based flow cytometry analysis relative to control. Type of series: functional.
The subject of series [6] is A549. In words: Induction of mitochondrial respiration in human A549 cells assessed as increase in oxygen consumption rate by Oxygraph-2K system. Type of series: functional, cell-based.
Series [7] deals with A549. In words: Effect on mitochondrial function in human A549 cells assessed as fold increase in mean fluorescence intensity at IC50 incubated for 48 hrs by MitoTracker Red CMXRos staining based flow cytometry analysis relative to control. The class given is functional.
The test system of series [8] is A549. In words: Induction of apoptosis in human A549 cells assessed as late apoptotic cells at IC50 incubated for 72 hrs by Annexin V-FITC staining based flow cytometry analysis (reference value: 1.86 %). Type of series: functional.
The nature of series [9]: Selectivity index, ratio of IC50 for cytotoxicity against chinese hamster V79 cells to IC50 for cytotoxicity against human A549 cells. The class given is toxicity, cell-based. To be noted: V79 cells versus A549 cells, read-out: Ratio IC50.
The subject of series [10] is MDA-MB-231. In words: Induction of ROS generation of human MDA-MB-231 cells assessed as fold increase at IC50 incubated for 6 hrs by CellROX Green staining based spectrofluorometer analysis relative to control. Type of series: functional.
Series [11] relates to MDA-MB-231. In words: Effect on mitochondrial function in human MDA-MB-231 cells assessed as increase in MTRed CMXRos positive cells at IC50 incubated for 48 hrs by MitoTracker Red CMXRos staining based flow cytometry analysis relative to control. Type of series: functional.
The test system of series [12] is A549. In words: Effect on mitochondrial mass in human A549 cells assessed as fold increase in mean fluorescence intensity at IC50 incubated for 48 hrs by MitoTracker Green FM staining based flow cytometry analysis relative to control. Type of series: functional.
The nature of series [13]: Selectivity index, ratio of IC50 for cytotoxicity against human HaCaT cells to IC50 for cytotoxicity against human SW480 cells. Type of series: toxicity, cell-based. Conditions: HaCaT cells versus SW480 cells, read-out: Ratio IC50.
Series [14] deals with A549. Briefly: Induction of apoptosis in human A549 cells assessed as necrotic cells at IC50 incubated for 72 hrs by Annexin V-FITC staining based flow cytometry analysis (reference value: 0.97 %). Type of series: functional.
Series [15] concerns MDA-MB-231. In words: Effect on mitochondrial mass in human MDA-MB-231 cells assessed as fold increase in mean fluorescence intensity at IC50 incubated for 48 hrs by MitoTracker Green FM staining based flow cytometry analysis relative to control. The class given is functional.
Series [16] has as its system MDA-MB-231. In words: Induction of apoptosis in human MDA-MB-231 cells assessed as late apoptotic cells at IC50 incubated for 72 hrs by Annexin V-FITC staining based flow cytometry analysis (reference value: 3.07 %). The class given is functional.
For series [17], the system named is Lipid bilayer. Briefly: Induction of ionic transport in azolectin bilayer membrane assessed as specific channel-like structure formation in presence of HEPES buffer by electrophysiology technique.
Series [18] has as its system Lipid bilayer. In words: Induction of ionic transport in azolectin bilayer membrane assessed as membrane rupture in presence of HEPES buffer by electrophysiology technique.
For series [19], the system named is Lipid bilayer. In words: Induction of current generation in azolectin bilayer membrane in presence of HEPES buffer by electrophysiology technique.
The test system of series [20] is Lipid bilayer. In words: Induction of ionic transport in azolectin bilayer membrane assessed as irregular disturbance in membrane permeability in presence of HEPES buffer by electrophysiology technique.
Series [21] deals with A549. In words: Induction of mitochondrial respiration in human A549 cells assessed as increase in oxygen consumption rate upto 10 uM by Oxygraph-2K system. The class given is functional, cell-based.

One may read the MIC as the smallest concentration in the dilution series that meets the test's criterion for growth inhibition.

`CCCC[P+](CCCC)(CCCC)CCCCOC(=O)[C@H](CC)[C@H]1CC[C@H](C)[C@H]([C@@H](C)[C@H](O)[C@H](C)C(=O)[C@H](CC)[C@H]2O[C@]3(C=C[C@@H](O)[C@]4(CC[C@@](C)([C@H]5CC[C@](O)(CC)[C@H](C)O5)O4)O3)[C@H](C)C[C@@H]2C)O1.[Br-]`: the minimal inhibitory concentration (MIC) against Staphylococcus aureus was found to be 2 µg/mL. Besides, the “fold change (FC)” value with MDA-MB-231 [1] was 5; in the series on A549 [7], 3; with MDA-MB-231 [10], 2; in the series with A549 [12], 6; with MDA-MB-231 [15] it was 8. The Activity in the series on A549 [2] is recorded as 70%; in the series with A549 [5], 50%; with A549 [6], “Active; Small Increase In Oxygen Consumption Rate Was Observed”; in the series on A549 [8], 14.59%; in the series on MDA-MB-231 [11] it was 90%; with A549 [14], 12.94%. Also, the Activity with MDA-MB-231 [16] stood at 21.8%. In addition, the results for the selectivity ratio in series [3], in series [9] and in series [13] were 1.1, 0.7 and 1.4, respectively. For the same compound, in the series with A549 [4], the result was Active.
`CC[C@@H](C(=O)[C@@H](C)[C@@H](O)[C@H](C)[C@@H]1O[C@@H]([C@@H](CC)C(=O)OCCCC[P+](c2ccccc2)(c2ccccc2)c2ccccc2)CC[C@@H]1C)[C@H]1O[C@]2(C=C[C@@H](O)[C@]3(CC[C@@](C)([C@H]4CC[C@](O)(CC)[C@H](C)O4)O3)O2)[C@H](C)C[C@@H]1C.[Br-]` displayed an MIC in the series with Staphylococcus aureus of 2 µg/mL. The outcome in the series with Lipid bilayer [17], with Lipid bilayer [18] and in the series on Lipid bilayer [20] was inactive. In addition, the “fold change (FC)” value is given as 3 with MDA-MB-231 [1]; 3 with A549 [7]; 2 in the series with MDA-MB-231 [10]; 6 with A549 [12]; 8 in the series with MDA-MB-231 [15]. For the same compound, the Activity entry in the series with Lipid bilayer [19] is “Dose-dependent-effect”; in the series with A549 [2] it was 70%; in the series with A549 [4] it was 68.5%; in the series on A549 [5] it was 50%; with A549 [8], 3.9%; with MDA-MB-231 [11], 50%. In addition, the Activity amounted to 2.13% in the series on A549 [14] and 15.32% with MDA-MB-231 [16]. The selectivity ratio in series [3] is 0.9; in [9], 0.2; in series [13], 3.2. Moreover, the outcome with A549 [21] was Active.
